Experimental data published in patent US9975944B2, “Synthetic peptides for the treatment of autoimmune diseases” (TEL HASHOMER MEDICAL RESEARCH INFRASTRUCTURE AND SERVICES …, priority 2013, dated 2018).

Assays:
[1] = tested on: anti cit-β-fibrinogen ACPA; experiment: Peptide inhibition assay in ELISA, plates coated with cit-β-fibrinogen; set-up: species or system human; conditions: sera of ACPA-positive RA patients diluted to about 50% binding OD, 2 h preincubation at room temperature
Procedure: Peptide inhibition assay in ELISA was used to confirm the cross-reactivity of the Cit-ME peptide to the following anti-citrullinated protein antibodies (ACPA): anti citrullinated filaggrin, anti cit-β-fibrinogen, anti cit-collagen and anti cit-vimentin. Sera were obtained from ACPA RA patients and samples with highly positive ACPA levels were selected (≥100 U/ml) using commercial CCP ELISA test (INOVA). ELISA test was performed with each of the citrullinated peptides: cit-filaggrin (HQCHQESTCitGRSRGRCGRSGS) set forth in SEQ ID NO: 3, cit-β-fibrinogen (CitPAPPPISGGGYCitACit) set forth in SEQ ID NO: 2, cit-collagen (ACitGLTGCitPGDAK) set forth in SEQ ID NO: 21 and cit-vimentin (SAVRACitSSVPGVRK) set forth in SEQ ID NO: 22. Sera were diluted in PBS to obtain a reactivity of approximately 50% binding OD under standard assay conditions. Increasing concentrations of Cit-ME peptide were added to the diluted sera and incubated for two hours at room temperature. Specimens were then assayed in ELISA plates coated with each one of the peptides. […] Thus, ACPA have binding specificity to Cit-ME.

[2] = tested on: TNF-α; experiment: TNF-α gene expression in mononuclear cells derived from synovial fluid of RA patients, real-time PCR; type: cell-based, human; conditions: 24 h, compared to the non-citrullinated peptides
Procedure: To assess the effect of the Cit-ME peptide (SEQ ID NO: 1) on inflammatory related genes expression, peripheral blood mononuclear cells derived from synovial fluid rheumatoid arthritis patients were incubated with the Cit-ME multi-epitope citrullinated peptide for 24 h. The effect of the peptide on gene expression was compared also to the effect of infliximab, a TNF-α blocker, which is an antirheumatic drug that acts as an anti-inflammatory compound. […] Results were determined by real-time PCR.

[3] = tested on: CD4+CD25+Foxp3+ T cells; experiment: Regulatory T cell proportion in PBMC of RA patients, FACS; type: cell-based, human; conditions: 1.25 μg/ml peptide, 48 hours, compared with non-citrullinated matched peptide
Procedure: Given the observed immunomodulation of cytokines following incubation of peripheral blood mononuclear cells obtained from rheumatoid arthritis patients with citrullinated peptides, the citrullinated peptides were tested for their ability to exert an effect on the T regulatory population proportion. Peripheral blood mononuclear cells of rheumatoid arthritis patients were cultured in the presence of 1.25 μg/ml of the peptides (Fil-Cit, β-Fib-Cit, and Cit-ME; FIGS. 6A, 6B and 6E, respectively, and Fil-NC, β-Fib-NC and Non-Cit-ME; FIGS. 6C, 6D and 6G, respectively), and Infliximab (FIG. 6F) for 48 hours. Cells cultured with medium devoid of the peptides and Infliximab served as control (FIG. 6H). Thereafter, cells were stained for the expression of CD4, CD25, and FoxP3 and analyzed by FACS. […] Mean percentage of CD4^+CD25^+Foxp3^+ T cells in the presence of Infliximab was increased by 14% as compared to medium (FIG. 6F and FIG. 6H, respectively). Thus, citrullinated peptides are able to induce the expansion of the T regulatory cell population.

[4] = tested on: T cells; experiment: T cells apoptosis in PBMC of RA patients, annexin V/PI FACS; type: cell-based, human; conditions: 24 hours, gated on PI negative cells, compared with matched non-citrullinated peptide
Procedure: To assess the ability of the citrullinated peptides to affect T cells apoptosis, peripheral blood mononuclear cells of rheumatoid arthritis patients were cultured in the presence of citrullinated, non-citrullinated peptides and Infliximab for 24 hours. Cells were double-stained for annexin V-fluorescein isothiocyanate (FITC) and PI-PE (apoptosis/necrosis markers) and analyzed by FACS. The results in FIG. 8 are presented after gating for PI negative cells (live cells). The β-Fib-Cit and Cit-ME (FIGS. 8A and 8B, respectively) induced T cells apoptosis (by 20% and 18%, respectively) as compared with the non-citrullinated peptides Non-Cit-β-Fib (FIG. 8D) and Non-Cit-ME (FIG. 8E). Infliximab induced apoptosis by 28% (FIG. 8C) as compared with the medium control (FIG. 8F).

[5] = tested on: FAS receptor; experiment: FAS mRNA expression in splenocytes of AIA rats, RT-PCR; type: in vivo, rat; conditions: compared to Non-Cit-ME and control groups
Procedure: To examine whether Cit-ME affects apoptosis through the FAS receptor pathway, FAS mRNA expression in splenocytes was evaluated (FIG. 14F), using the following RT-PCR primers: forward 5′-TGGCTGTCCTGCCTCTGGT-3′ (SEQ ID NO: 19) and reverse 5′-[…]-3′ (SEQ ID NO: 20).

What does the source list for “VCitLCitSSVESTCitGRSCitPAPPPACitGLT [Cit-ME]”?
amount of peptide sufficient to impair binding of specific ACPA to cit-β-fibrinogen [1]: 10 to 200 µg; expression of TNF-α [2]: down-regulated; increase in mean percentage of CD4+CD25+Foxp3+ T cells [3]: 12%; induction of T cells apoptosis [4]: 18%; mean relative expression level of FAS mRNA [5]: significantly higher
